Reference: US11739098B2 (BRISTOL-MYERS SQUIBB COMPANY, priority 2017, dated 2023)

Columns and labels:
Assay type in all cases: cell-based
human TLR7 = target: T1, human TLR7 (Homo sapiens, UniProt Q9NYK1); experiment: TLR7 inhibition reporter assay (HEK-Blue cells, SEAP reporter, gardiquimod stimulation); details: HEK-Blue cells overexpressing human TLR7, SEAP reporter, gardiquimod 7.5 μM
T1 construct: host or cells: HEK-Blue cells (HEK293-derived reporter line)
T1 sequence (Q9NYK1 27-1049): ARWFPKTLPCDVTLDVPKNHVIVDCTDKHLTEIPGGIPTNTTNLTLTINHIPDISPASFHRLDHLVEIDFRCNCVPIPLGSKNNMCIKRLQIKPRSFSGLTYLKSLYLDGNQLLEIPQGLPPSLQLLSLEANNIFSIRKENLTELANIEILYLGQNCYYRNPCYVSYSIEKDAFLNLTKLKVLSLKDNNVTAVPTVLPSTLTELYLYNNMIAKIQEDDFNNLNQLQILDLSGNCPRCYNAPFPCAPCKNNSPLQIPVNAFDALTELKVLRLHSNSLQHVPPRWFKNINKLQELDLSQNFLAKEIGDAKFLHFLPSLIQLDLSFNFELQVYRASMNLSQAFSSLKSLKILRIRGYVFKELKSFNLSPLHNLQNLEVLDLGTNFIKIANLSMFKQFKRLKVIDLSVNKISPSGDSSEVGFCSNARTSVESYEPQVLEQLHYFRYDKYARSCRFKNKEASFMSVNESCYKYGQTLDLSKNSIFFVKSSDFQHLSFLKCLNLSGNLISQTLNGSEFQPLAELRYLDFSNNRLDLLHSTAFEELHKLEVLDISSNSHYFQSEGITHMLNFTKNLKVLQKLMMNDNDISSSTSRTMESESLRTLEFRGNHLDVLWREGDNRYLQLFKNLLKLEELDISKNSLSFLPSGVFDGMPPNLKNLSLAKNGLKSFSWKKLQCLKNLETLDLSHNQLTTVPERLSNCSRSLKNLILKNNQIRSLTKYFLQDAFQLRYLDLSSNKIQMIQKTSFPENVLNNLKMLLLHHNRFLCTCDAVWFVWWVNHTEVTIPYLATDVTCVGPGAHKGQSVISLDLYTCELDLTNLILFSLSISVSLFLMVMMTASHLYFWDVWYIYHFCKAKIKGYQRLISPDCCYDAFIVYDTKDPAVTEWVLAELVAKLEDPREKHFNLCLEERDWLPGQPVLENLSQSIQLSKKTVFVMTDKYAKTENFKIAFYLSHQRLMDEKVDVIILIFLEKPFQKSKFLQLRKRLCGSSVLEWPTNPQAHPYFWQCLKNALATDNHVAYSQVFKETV
Procedure: (§1) TLR7/8/9 Inhibition Reporter Assays
(§2) HEK-Blue™-cells (Invivogen) overexpressing human TLR7, TLR8 or TLR9 receptors were used for screening inhibitors of these receptors using an inducible SEAP (secreted embryonic alkaline phosphatase) reporter gene under the control of the IFN-β minimal promoter fused to five NF-κB and AP-1-binding sites. Briefly, cells are seeded into Greiner 384 well plates (15000 cells per well for TLR7, 20,000 for TLR8 and 25,000 for TLR9) and then treated with test compounds in DMSO to yield a final dose response concentration range of 0.05 nM-50 μM. After a 30 minute compound pre-treatment at room temperature, the cells are then stimulated with a TLR7 ligand (gardiquimod at a final concentration of 7.5 μM), TLR8 ligand (R848 at a final concentration of 15.9 μM) or TLR9 ligand (ODN2006 at a final concentration of 5 nM) to activate NF-κB and AP-1 which induce the production of SLAP After a 22 hour incubation at […], SLAP levels are determined with the addition of HLK-Blue™ Detection reagent (Invivogen), a cell culture medium that allows for detection of SLAP, according to manufacturer's specifications. The percent inhibition is determined as the […] in the HEK-Blue signal present in wells treated with agonist plus DMSO alone compared to wells treated with a known inhibitor.

human TLR8 = target: T2, human TLR8 (Homo sapiens, UniProt Q9NR97); experiment: TLR8 inhibition reporter assay (HEK-Blue cells, SEAP reporter, R848 stimulation); details: HEK-Blue cells overexpressing human TLR8, SEAP reporter, R848 15.9 μM
T2 construct: host or cells: HEK-Blue cells (HEK293-derived reporter line)
T2 sequence (Q9NR97 27-1041): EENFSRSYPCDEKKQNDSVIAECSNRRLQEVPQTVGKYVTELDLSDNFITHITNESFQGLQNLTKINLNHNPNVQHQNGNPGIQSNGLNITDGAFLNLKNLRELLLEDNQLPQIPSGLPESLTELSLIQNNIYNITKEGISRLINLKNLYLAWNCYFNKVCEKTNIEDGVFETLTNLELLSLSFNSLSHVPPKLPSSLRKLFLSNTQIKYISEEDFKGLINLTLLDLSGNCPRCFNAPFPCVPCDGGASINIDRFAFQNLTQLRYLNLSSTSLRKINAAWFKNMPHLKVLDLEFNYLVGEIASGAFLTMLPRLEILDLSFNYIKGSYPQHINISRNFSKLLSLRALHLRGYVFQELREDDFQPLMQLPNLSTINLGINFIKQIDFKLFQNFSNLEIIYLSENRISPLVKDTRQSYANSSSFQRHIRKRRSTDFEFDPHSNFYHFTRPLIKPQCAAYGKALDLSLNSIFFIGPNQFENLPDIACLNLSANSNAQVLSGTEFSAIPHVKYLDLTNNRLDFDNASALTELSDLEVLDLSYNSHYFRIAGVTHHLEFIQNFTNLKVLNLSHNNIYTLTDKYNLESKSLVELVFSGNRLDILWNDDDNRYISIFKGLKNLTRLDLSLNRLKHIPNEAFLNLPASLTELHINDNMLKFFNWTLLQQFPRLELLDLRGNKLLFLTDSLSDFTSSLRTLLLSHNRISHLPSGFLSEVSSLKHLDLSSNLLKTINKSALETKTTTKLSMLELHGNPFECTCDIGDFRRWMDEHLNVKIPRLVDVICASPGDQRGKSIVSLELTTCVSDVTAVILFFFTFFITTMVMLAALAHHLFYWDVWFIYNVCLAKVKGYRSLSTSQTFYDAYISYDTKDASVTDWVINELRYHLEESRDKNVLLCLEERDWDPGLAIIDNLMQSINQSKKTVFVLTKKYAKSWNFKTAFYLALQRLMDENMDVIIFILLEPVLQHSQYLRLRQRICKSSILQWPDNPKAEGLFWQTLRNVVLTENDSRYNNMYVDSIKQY
Procedure: as §1, §2

human TLR9 = target: T3, human TLR9 (Homo sapiens, UniProt Q9NR96); experiment: TLR9 inhibition reporter assay (HEK-Blue cells, SEAP reporter, ODN2006 stimulation); details: HEK-Blue cells overexpressing human TLR9, SEAP reporter, ODN2006 5 nM
T3 construct: host or cells: HEK-Blue cells (HEK293-derived reporter line)
T3 sequence (Q9NR96 26-1032): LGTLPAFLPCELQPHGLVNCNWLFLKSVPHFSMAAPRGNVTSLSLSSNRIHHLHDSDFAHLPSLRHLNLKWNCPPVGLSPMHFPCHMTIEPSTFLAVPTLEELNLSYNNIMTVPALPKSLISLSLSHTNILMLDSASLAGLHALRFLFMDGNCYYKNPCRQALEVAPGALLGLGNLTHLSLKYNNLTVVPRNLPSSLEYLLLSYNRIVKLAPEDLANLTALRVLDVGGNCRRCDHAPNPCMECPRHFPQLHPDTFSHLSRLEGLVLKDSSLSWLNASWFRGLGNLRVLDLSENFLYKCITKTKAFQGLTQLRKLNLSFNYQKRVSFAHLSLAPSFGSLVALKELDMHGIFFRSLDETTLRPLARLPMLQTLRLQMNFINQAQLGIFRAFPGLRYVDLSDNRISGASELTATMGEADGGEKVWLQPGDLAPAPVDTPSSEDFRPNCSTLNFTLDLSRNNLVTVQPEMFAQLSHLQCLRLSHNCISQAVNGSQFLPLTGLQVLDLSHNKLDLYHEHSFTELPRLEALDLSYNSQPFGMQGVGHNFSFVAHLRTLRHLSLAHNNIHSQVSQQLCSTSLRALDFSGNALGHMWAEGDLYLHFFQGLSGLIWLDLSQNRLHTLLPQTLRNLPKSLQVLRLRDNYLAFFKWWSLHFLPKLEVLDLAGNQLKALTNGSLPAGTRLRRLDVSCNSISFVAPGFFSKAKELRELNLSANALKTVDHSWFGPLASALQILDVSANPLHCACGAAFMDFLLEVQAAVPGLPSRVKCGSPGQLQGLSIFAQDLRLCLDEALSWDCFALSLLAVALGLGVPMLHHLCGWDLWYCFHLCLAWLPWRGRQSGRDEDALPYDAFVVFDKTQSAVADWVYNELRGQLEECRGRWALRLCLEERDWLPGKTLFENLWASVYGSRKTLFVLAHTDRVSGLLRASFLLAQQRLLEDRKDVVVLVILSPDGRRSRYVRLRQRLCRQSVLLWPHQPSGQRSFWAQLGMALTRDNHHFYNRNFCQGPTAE
Procedure: as §1, §2

| IC50 (human TLR7) [nM] | IC50 (human TLR8) [nM] | IC50 (human TLR9) [nM] | Structure (SMILES) |
| --- | --- | --- | --- |
| < 100 | < 100 | 1000 to 50000 | CC(C)c1c(-c2ccc(C#N)c3ncccc23)[nH]c2ccc(C3CCN(CCS(C)(=O)=O)CC3)cc12 [Example 796, 5-(3-isopropyl-5-(1-(2-(methylsulfonyl)ethyl)piperidin-4-yl)-1H-indol-2-yl)quinoline-8-carbonitrile] |
| < 100 | < 100 | 1000 to 50000 | CC(C)c1c(-c2ccn3nccc3c2)[nH]c2ccc(C3CCN(CC(=O)N(C)C)CC3)cc12 [Example 441, 2-(4-(3-isopropyl-2-(pyrazolo[1,5-a]pyridin-5-yl)-1H-indol-5-yl)piperidin-1-yl)-N,N-dimethylacetamide] |
| < 100 | 100 to 1000 | 1000 to 50000 | CC(C)c1c(-c2ccn3nncc3c2)[nH]c2ccc(C3CCN(C4CCOCC4)CC3)cc12 [Example 696, 5-(3-isopropyl-5-(1-(tetrahydro-2H-pyran-4-yl)piperidin-4-yl)-1H-indol-2-yl)-[1,2,3]triazolo[1,5-a]pyridine] |
| < 100 | 100 to 1000 | 100 to 1000 | CC(C)c1c(-c2ccc3cnnn3c2)[nH]c2ccc(C3CCNCC3)cc12 [Example 79, 6-(3-isopropyl-5-(piperidin-4-yl)-1H-indol-2-yl)-[1,2,3]triazolo[1,5-a]pyridine] |
| < 100 | < 100 | 1000 to 50000 | CC(C)c1c(-c2nc3ccnn3cc2F)[nH]c2ccc(C3CCNCC3)cc12 [Example 147, 6-fluoro-5-(3-isopropyl-5-(piperidin-4-yl)-1H-indol-2-yl)pyrazolo[1,5-a]pyrimidine] |
| < 100 | < 100 | 1000 to 50000 | Cc1c(-c2[nH]c3ccc(C4CCN(CC(=O)N(C)C)CC4)cc3c2C(C)C)c2cccnc2n1C [Example 286, 2-(4-(2-(1,2-dimethyl-1H-pyrrolo[2,3-b]pyridin-3-yl)-3-isopropyl-1H-indol-5-yl)piperidin-1-yl)-N,N-dimethylacetamide] |
| < 100 | < 100 | 100 to 1000 | CC(C)c1c(-c2ccn3nncc3c2)[nH]c2ccc(C3CCN(C4CCOCC4)CC3)cc12 [Example 701, 5-(3-isopropyl-5-(1-(tetrahydro-2H-pyran-4-yl)piperidin-4-yl)-1H-indol-2-yl)-[1,2,3]triazolo[1,5-a]pyridine] |
| < 100 | < 100 | 100 to 1000 | CCc1c(-c2ccnc3[nH]ncc23)[nH]c2ccc(C3CCN(CCN)CC3)cc12 [Example 656, 2-(4-(3-ethyl-2-(1H-pyrazolo[3,4-b]pyridin-4-yl)-1H-indol-5-yl)piperidin-1-yl)ethan-1-amine] |
| 100 to 1000 | < 100 | 1000 to 50000 | Cc1cc(-c2[nH]c3ccc(C4CCN(CC(=O)N(C)C)CC4)cc3c2C(C)C)cn2c(C#N)cnc12 [Example 430, 2-(4-(2-(3-cyano-8-methylimidazo [1,2-a]pyridin-6-yl)-3-isopropyl-1H-indol-5-yl)piperidin-1-yl)-N,N-dimethylacetamide] |
| < 100 | < 100 | 1000 to 50000 | CC(C)c1c(-c2ccnc3[nH]ncc23)[nH]c2ccc(C3CCN(C(=O)CN(C)C(C)C)CC3)cc12 [Example 585, 2-(isopropyl(methyl)amino)-1-(4-(3-isopropyl-2-(1H-pyrazolo[3,4-b]pyridin-4-yl)-1H-indol-5-yl)piperidin-1-yl)ethan-1-one] |
| > 3130 | > 3130 | 1000 to 50000 | Cc1cc2cc(-c3[nH]c4ccc(C5CCN(CC(C)(C)O)CC5)cc4c3C(C)C)cc(CC(C)C)n2n1 [Example 770, 1-(4-(2-(7-isobutyl-2-methylpyrazolo[1,5-a]pyridin-5-yl)-3-isopropyl-1H-indol-5-yl)piperidin-1-yl)-2-methylpropan-2-ol] |
| < 100 | < 100 | 1000 to 50000 | CNC(=O)CN1CCC(c2ccc3[nH]c(-c4nn5ncnc5c(OC)c4C)c(C(C)C)c3c2)CC1 [Example 281, 2-(4-(3-isopropyl-2-(8-methoxy-7-methyl-[1,2,4]triazolo[1,5-b]pyridazin-6-yl)-1H-indol-5-yl)piperidin-1-yl)-N-methylacetamide] |
| 100 to 1000 | 100 to 1000 | 1000 to 50000 | CCc1c(-c2ccnc3[nH]cc(CC)c23)[nH]c2ccc(C3CCNCC3)cc12 [Example 220, 3-ethyl-4-(3-ethyl-5-(piperidin-4-yl)-1H-indol-2-yl)-1H-pyrrolo[2,3-b]pyridine] |
